In a melting point compilation (Tetko et al.; mined from patent text by program, amines drawn as free bases though some values may be those of a salt):

Row | melting point [°C] | Structure (SMILES)
1 | 118 to 120 | CN(C)CC#CC1=Cc2ccccc2Sc2ccc(Cl)cc21
2 | 260 to 264 | O=C1Nc2ccc(Cl)cc2Cn2nnnc21
3 | 127 to 130 | COC(CN(C)C(=O)Nc1nnc(C(C)Oc2cccc(Cl)c2)s1)OC (configuration not stated)
4 | 182 to 184 | COc1ccc2cc(-c3ccc(S(C)(=O)=O)cc3)ccc2n1
5 | 203 to 204 | CCCc1c(O)ccc2c(=O)cc(/C=C/C(=O)OCC)oc12
6 | 100 to 102 | CN(CCOc1cn(-c2ccc(F)cc2)c2cc(Cl)ccc12)CCN1CCNC1=O
7 | 213 | CSc1nc2ccc(Br)cc2c2nn(-c3ccc(C)cc3)c(=O)n12
8 | 227 | COc1ccc2cc(-c3nc(-c4ccc(C)cc4)no3)c(=O)oc2c1
9 | 80.8 to 81.3 | CCCCc1nc2c(N)nc3ccccc3c2n1CCOCCCc1ccccc1
10 | 218 to 223 | O=C(COc1ccc(-c2ccccc2Cl)cn1)Nc1cscc1C(=O)O
11 | 142 to 143 | COc1ccc2c(c1)Sc1cc(N)ccc1N2C
12 | 111 to 113 | CC(=O)c1c(O)cccc1OCC(O)COc1ccc(F)cc1 (configuration not stated)
13 | 87 to 89 | Nc1ccc(OCc2nc3ccccc3s2)cc1
14 | 89 to 90 | CCOC(=O)C1=C(COCCNS(N)(=O)=O)NC(C)=C(C(=O)OC)C1c1cccc(Cl)c1Cl (configuration not stated)
15 | 166 to 168 | COc1cc(C=CC(=O)c2ccc(-c3cccs3)s2)ccc1O
16 | 71.5 to 73.5 | CCOC(=O)CCSc1nnsc1-c1ccc(Cl)cc1
17 | 96 to 97 | CCCOc1ccc2c(c1)C(=O)c1cccc(OC)c1-2
18 | 36 to 38 | CC1(C)CCC2(Cc3ccc(Cl)cc3)OC12CO (configuration not stated)
19 | 182 | CCOc1ccc2c(c1)C(C)(c1ccccc1Cl)C(=O)N2S(=O)(=O)c1ccc(C(=O)NC(C)(C)CF)cc1 (configuration not stated)
20 | 69.5 to 70.5 | CCOC(=O)c1c(C)cc2cnc(-c3ccccc3Cl)nc2c1C
21 | 40 to 43 | OCCCOc1ccc(Cl)c(Cl)c1
22 | 300 | CCn1nc(C)c2c1C(=NC#N)NCC(c1ccc(O)cc1)=N2
23 | 108 | CC(=O)C(CCCc1ccccc1)n1ncc2c(=O)[nH]c(Cc3ccc(-c4cccnc4)cc3)nc21 (configuration not stated)

The next lines start with the molecule.

Row | Structure (SMILES) | melting point [°C]
24 | Cc1ccc(N2C(=O)NC(=O)C23CCNCC3)cc1 | 128 to 130
25 | CC1COc2cccc([N+](=O)[O-])c2N1 (configuration not stated) | 60
26 | O=C(O)C1(C(=O)O)CC2CCC2C1 (configuration not stated) | 161 to 170
27 | O=C(O)Cc1cc2c(s1)-c1ccccc1SC2 | 106 to 110
28 | CCCCCCCCOc1cc(OC)ccc1C=O | 37 to 39
29 | O=C1NCc2cc(C(=O)c3ccccc3)ccc2N1 | 265
30 | C=CCON=C(CC)C1=C(O)CC(c2c(C)c(C)c3c(c2C)CC(C)(CC)C3)CC1=O (configuration not stated) | 64 to 65
31 | O=C1CCOc2cc(OCc3ccccc3)c(F)cc21 | 155 to 156
32 | CC(C)(C)OC(=O)CN1C(=O)C=C(CC(NC(=O)OC(C)(C)C)C(=O)OC(C)(C)C)C1=O (configuration not stated) | 88.5 to 89.5
33 | Cc1cc(Cl)cc(Cl)c1CNc1c(NC(C)(C)C)c(=O)c1=O | 264 to 268
34 | CCCCCCCCCCCCCCOc1ccc(CBr)cc1CBr | 62.9
35 | N=C(NO)C1=Cc2cc(O)c(O)cc2CC1 | 183 to 185
36 | Cn1cc(-c2cccc(N3Cc4cc(C(C)(C)C)ccc4C3=O)c2CO)cc(Nc2ccccn2)c1=O | 138 to 139
37 | CN1c2ccccc2-c2nc3ccc(/C=C/C#N)cc3c3cccc1c23 | 262 to 264
38 | COc1cc(C(=O)O)ccc1Cc1cn(C)c2ccc(C(=O)NC[C@H](C)CC(F)(F)F)cc12 | 218 to 223
39 | O=C(O)Cc1c(C(=O)O)c2cc(Oc3ccc(C(F)(F)F)cc3)ccc2n1-c1ccc(N2CCOCC2)cc1 | 257 to 259
40 | CCOC(=O)N[C@H]1CC=C[C@H]2CNC(=O)[C@H]12 (racemic) | 160 to 164
41 | CCCCCCCCCCCCCCC[C@@H](O)[C@@H](NCc1ccccc1)C(=O)O | 132
42 | COc1ccc2c(c1)c1c(n2Cc2ccc(C(C)(C)C)cc2)COC(=O)C1=O | 238 to 239
43 | O=C(NCCc1c(Cl)cccc1Cl)c1c(Cl)ccc2nc(N3CCC(C(=O)O)CC3)ccc12 | 262 to 264
44 | Cn1ncc(/C=C/C(=O)Nc2ccc(CC(=O)O)cc2)c1-c1ccc(F)cc1 | 245 to 246
45 | COC(=O)c1ccccc1S(=O)(=O)NC(=O)c1cnc2c(C)cc(C)nn12 | 210 to 212
46 | COc1ccc2c(c1)C(=O)N(c1ccc3c(c1)N(C)CCN3C)C2 | 137 to 142
47 | O=C(c1ccc(F)cc1)C1CCN(C2CN(Cc3ccncc3)CCC2O)CC1 (configuration not stated) | 182
48 | CC#CC(C)(C)NC(=O)C(CC)Oc1cc(C#N)cc(OC)c1 (configuration not stated) | 97 to 98

Row | Structure (SMILES) | melting point [°C]
49 | Cc1oc(-c2ccccc2)nc1COc1ccc(COc2nn(-c3ccccc3)cc2C=O)cc1 | 152 to 153
50 | O=C1CCCc2cc(OCc3ccccc3)ccc21 | 95 to 97
51 | O=[N+]([O-])c1ccc(F)cc1CS(=O)(=O)c1cccc2ccccc12 | 155 to 160
52 | CCc1noc(-c2ncc3[nH]c4ccccc4c3n2)n1 | 250 to 257
53 | CS(=O)(=O)N(c1ccc(C(=O)NC2CCN(C3CCCCC3)C2)cc1)S(C)(=O)=O (configuration not stated) | 176 to 178
54 | CCOC(=O)c1cc2sc(N=CN(C)C)c(C#N)c2s1 | 168
55 | CCc1cc(C(=O)c2ccccc2)c(O)cc1OCCCCC#N | 42 to 44
56 | O=C(NCC(=O)N1c2ccccc2N(Cc2ccccc2)C(=O)[C@H]2CCC[C@H]21)c1ccco1 (relative stereo) | 169 to 170
57 | O=C(O)c1c(-c2ccccc2)nc2c(C(F)(F)F)cccc2c1O | 204
58 | Brc1ccc(-c2coc3c2ccc2ccccc23)cc1 | 125 to 130
59 | COC(=O)CCC(C)C1CC=C2C3=C(CCC21C)C1(C)CCC(O)C(C)(C)C1CC3 (configuration not stated) | 156 to 157
60 | O=C1C(=O)N(c2ccccc2)C(=O)N1c1ccccc1 | 203
61 | CC(C)(C)NS(=O)(=O)c1ccccc1-c1ccc(NC(=O)N(Cc2cccc(C(=N)N)c2)c2ccccc2)cc1 | 140 to 141
62 | CCOC(=O)C1CCN(S(C)(=O)=O)CC1 | 91 to 92
63 | Cc1cccc(-n2c(CF)nc3ccc([N+](=O)[O-])cc3c2=O)c1C | 178 to 180
64 | CC(C)(Cc1ccc(OC(F)(F)F)cc1)C(=O)C(C)(C)n1cncn1 | 100
65 | CN1C(=O)CN=C(c2ccc(O)cc2)c2cc(Cl)ccc21 | 225 to 259
66 | CC(=O)N1CCc2c(sc(C)c2CCN2CCC(c3noc4cc(F)ccc34)CC2)C1 | 70 to 75
67 | CN1CCC(Nc2ccccc2OCc2ccccc2)CC1 | 90 to 95
68 | FC(F)(F)c1cc(CO[C@H]2CCCN(Cc3nsc(I)n3)[C@H]2c2ccccc2)cc(C(F)(F)F)c1 | 98 to 101
69 | CCCCCS(=O)(=O)NC(=O)/C=C/c1ccc(OCCOC)cc1NC(=O)c1ccc(F)cc1F | 140 to 141
70 | O=C1Nc2ccccc2N2CCCC12 (configuration not stated) | 169 to 172
71 | COC(=O)C1=C(C)NC2=C(C(=O)CN(Cc3ccccc3)C2)C1c1ccccc1C (configuration not stated) | 201 to 204
72 | N#CCCn1c(=O)n(C2CCN(CCNC(=O)c3ccc(F)cc3)CC2)c2ccccc21 | 172
